Source: BindingDB's records for doi:10.1021/jm00040a015 (Pfizer, 1994)

Target: cAMP-dependent protein kinase catalytic subunit alpha (Bos taurus, UniProt P00517)
Test: PKA Inhibition Assay
Excerpt: IC50 is the inhibitor concentration, which inhibits 50% of PKA activity that catalyzes the transfer of the terminal phosphate from [gamma-32P] labeled ATP to a synthetic kemptide peptide substrate.

| IC50 (pH 7.4, 30 °C) [µM] | IC50 [µM] | SMILES |
| --- | --- | --- |
| > 2000 |  | CCn1c(=O)c2cc(O)c(O)cc2c2cc(O)c(O)cc21 [5-ethyl-2,3,8,9-tetrahydroxy-5,6-dihydrophenanthridin-6-one] |
| > 800 |  | Oc1cc2nc(O)c3cc(O)c(O)cc3c2cc1O [2,3,8,9-tetrahydroxy-5,6-dihydrophenanthridin-6-one] |
|  | > 600 | O=S(=O)(c1ccccc1)n1c2cc(O)c(O)cc2c2cc(O)c(O)cc21 [9-(benzenesulfonyl)-9H-carbazole-2,3,6,7-tetrol] |
